Data as given in patent US9163030B2 (priority 2012, dated 2015).
Read-outs that look alike come from different tables or passages of the source.

Legend:
DOR [1] = molecular target: T1, DOR (Mus musculus, UniProt P32300); test: [35S]GTP-γ-S binding assay, NG108-15 cells; type: biochemical; conditions: for agonist activity DOR EC50: stimulation of [35S]GTP-γ-S binding, no stim = no stimulation; for functional activity profile at DOR: in words; for Emax: read-out: agonist activity DOR Emax
T1 construct: endogenous in cells; host or cells: NG108-15 neuroblastoma x glioma cells
T1 sequence (P32300 whole entry): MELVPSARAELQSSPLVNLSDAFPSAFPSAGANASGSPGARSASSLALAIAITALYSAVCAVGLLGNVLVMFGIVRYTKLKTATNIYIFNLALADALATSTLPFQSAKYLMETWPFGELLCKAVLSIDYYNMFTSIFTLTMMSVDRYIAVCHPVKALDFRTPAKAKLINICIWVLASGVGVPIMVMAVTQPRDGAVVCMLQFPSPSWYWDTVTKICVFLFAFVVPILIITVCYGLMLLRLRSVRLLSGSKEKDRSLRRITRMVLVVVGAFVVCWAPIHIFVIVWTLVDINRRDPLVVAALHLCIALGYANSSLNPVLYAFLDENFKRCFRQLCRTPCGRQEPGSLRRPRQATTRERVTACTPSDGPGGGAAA

MOR [2] = molecular target: T2, MOR (Homo sapiens, UniProt P35372); test: Opioid binding assay, displacement of [3H]DAMGO, hMOR-CHO cell membranes; conditions: for selectivity ratio MOR/DOR: ratio of Ki values, CHO membranes
T2 construct: expressed in transfected cells; host or cells: CHO (hMOR-CHO)
T2 sequence (P35372 whole entry): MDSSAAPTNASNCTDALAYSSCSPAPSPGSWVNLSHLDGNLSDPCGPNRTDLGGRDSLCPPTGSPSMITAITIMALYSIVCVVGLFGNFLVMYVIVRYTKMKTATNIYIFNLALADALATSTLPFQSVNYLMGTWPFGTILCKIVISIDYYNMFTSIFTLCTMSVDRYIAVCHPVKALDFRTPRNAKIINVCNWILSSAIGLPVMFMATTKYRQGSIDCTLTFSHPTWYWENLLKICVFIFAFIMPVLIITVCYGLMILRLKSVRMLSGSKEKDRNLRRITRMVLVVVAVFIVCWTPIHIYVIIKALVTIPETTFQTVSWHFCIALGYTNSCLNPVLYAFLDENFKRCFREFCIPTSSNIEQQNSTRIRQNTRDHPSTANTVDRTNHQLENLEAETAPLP

MOR [3] = molecular target: T2, MOR; test: [35S]GTP-γ-S binding assay, hMOR-CHO cells; type: biochemical; conditions: for agonist activity MOR EC50: stimulation of [35S]GTP-γ-S binding, no stim = no stimulation; for Emax: normalized to stimulation by DAMGO, read-out: agonist activity MOR Emax
DOR [4] = molecular target: T3, DOR (Homo sapiens, UniProt P41143); test: Opioid binding assay, displacement of [3H]DADLE, hDOR-CHO cell membranes
T3 construct: expressed in transfected cells; host or cells: CHO (hDOR-CHO)
T3 sequence (P41143 whole entry): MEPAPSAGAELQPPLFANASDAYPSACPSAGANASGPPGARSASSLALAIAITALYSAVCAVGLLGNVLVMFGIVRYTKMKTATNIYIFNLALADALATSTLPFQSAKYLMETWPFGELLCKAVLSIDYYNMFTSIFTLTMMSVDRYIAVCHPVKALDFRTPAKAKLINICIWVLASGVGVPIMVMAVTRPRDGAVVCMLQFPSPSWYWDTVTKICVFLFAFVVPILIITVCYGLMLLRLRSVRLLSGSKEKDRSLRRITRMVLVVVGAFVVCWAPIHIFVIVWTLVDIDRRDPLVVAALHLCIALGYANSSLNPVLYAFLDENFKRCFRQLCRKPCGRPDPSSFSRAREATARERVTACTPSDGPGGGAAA

KOR [5] = molecular target: T4, KOR (Homo sapiens, UniProt P41145); test: biochemical; type: binding
T4 construct: expressed in transfected cells; host or cells: CHO (hKOR-CHO)
T4 sequence (P41145 whole entry): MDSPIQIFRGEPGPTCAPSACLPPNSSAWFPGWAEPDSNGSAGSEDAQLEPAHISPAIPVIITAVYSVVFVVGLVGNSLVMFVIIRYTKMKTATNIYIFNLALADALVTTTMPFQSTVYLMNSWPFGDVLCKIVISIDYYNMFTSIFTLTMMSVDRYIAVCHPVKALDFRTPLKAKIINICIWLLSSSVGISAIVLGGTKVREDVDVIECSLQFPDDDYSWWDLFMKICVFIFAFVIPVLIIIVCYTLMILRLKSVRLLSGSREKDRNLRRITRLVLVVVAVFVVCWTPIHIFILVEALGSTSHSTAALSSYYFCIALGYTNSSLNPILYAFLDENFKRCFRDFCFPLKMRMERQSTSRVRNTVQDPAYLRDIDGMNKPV

KOR [6] = molecular target: T4, KOR; test: [35S]GTP-γ-S binding assay, hKOR-CHO cells; type: biochemical
mice = test: 55° C. warm-water tail-withdrawal test; type: in vivo, mouse; conditions: for Antinociceptive A50 Values: calculated at time of peak effect
[7] = normalized to stimulation by standard agonist
[8] = ratio of Ki values, CHO membranes
[9] = shift in EC50 of standard agonist

Compound	melting point [°C]	agonist activity DOR EC50 (DOR [1])	Ki (MOR [2]) [nM]	selectivity ratio MOR/DOR (MOR [2])	agonist activity MOR EC50 (MOR [3])	Ki (DOR [4]) [nM]	selectivity ratio KOR/DOR (KOR [5])	Ki (KOR [5]; read-out: Ki ± SEM KOR) [nM]	selectivity ratio KOR/DOR (KOR [5]; [8])	also measured
COC12Cc3cc(-c4ccc(Cl)cc4)cnc3C3Oc4c(O)ccc5c4C31CCN(CC1CC1)C2C5 (stereo not drawn) [Compound 17a, 5′-(4-Chlorophenyl)-17-(cyclopropylmethyl)-6,7-didehydro-4,5α-epoxy-3-hydroxy-14-methoxypyrido[2′,3′:6,7]morphinan]	170 to 173	no stim^b	41.9 ± 2.8	22	no stim	1.95 ± 0.14	2.8	5.37 ± 0.48	–	–
Oc1ccc2c3c1OC1c4ncc(-c5ccc(Cl)cc5)cc4CC4(OCc5ccccc5)C(C2)N(CC2CC2)CCC314 (stereo not drawn) [Compound 17b, 14-(Benzyloxy)-5′-(4-chlorophenyl)-17-(cyclopropylmethyl)-6,7-didehydro-4,5α-epoxy-3-hydroxypyrido[2′,3′:6,7]morphinan]	130 to 132	no stim	8.42 ± 0.29	4.4	no stim	1.91 ± 0.08	2.8	–	–	EC50 (KOR [6]): 27 ± 9 nM; Emax (KOR [6]; [7]): 15 ± 1%; Ki (KOR [5]): 5.33 ± 0.27 nM
Oc1ccc2c3c1OC1c4ncc(-c5ccc(Cl)cc5)cc4CC4(OCC=Cc5ccccc5)C(C2)N(CC2CC2)CCC314 (stereo not drawn) [Compound 17c, 5′-(4-Chlorophenyl)-14-cinnamyloxy-17-(cyclopropylmethyl)-6,7-didehydro-4,5α-epoxy-3-hydroxypyrido[2′,3′:6,7]morphinan]	138 to 140	no stim	3.03 ± 0.38	0.81	no stim	3.74 ± 0.32	0.89	–	–	Ki (KOR [5]): 3.31 ± 0.3 nM
CN1CCC23c4c5ccc(O)c4OC2c2ncc(-c4ccc(Cl)cc4)cc2CC3(OCc2ccccc2)C1C5 (stereo not drawn) [Compound 17f, 14-Benzyloxy-5′-(4-chlorophenyl)-6,7-didehydro-4,5α-epoxy-3-hydroxy-17-methylpyrido[2′,3′:6,7]morphinan]	228 to 232	–	4.69 ± 0.17	2.6	–	1.78 ± 0.15	–	49 ± 6	28	functional activity profile at DOR (DOR [1]): weak to potent partial agonist activity at DOR; Emax (DOR [1]): 52 ± 1%; EC50 (KOR [6]): 215 ± 54 nM; Emax (KOR [6]; [7]): 32 ± 2%; EC50 (MOR [3]): 301 nM; Emax (MOR [3]): 119 ± 3%
CN1CCC23c4c5ccc(O)c4OC2c2ncc(-c4ccc(Cl)cc4)cc2CC3(OCC=Cc2ccccc2)C1C5 (stereo not drawn) [Compound 17g, 5′-(4-Chlorophenyl)-14-cinnamyloxy-6,7-didehydro-4,5α-epoxy-3-hydroxy-17-methylpyrido[2′,3′:6,7]morphinan]	–	–	0.41 ± 0.04	0.36	–	1.14 ± 0.11	–	1.55 ± 0.09	1.4	functional activity profile at DOR (DOR [1]): weak to potent partial agonist activity at DOR; Emax (DOR [1]): 84%; Antinociceptive A50 Values (mice; icv): 0.23 nmol; antinociceptive effect (mice; icv, in words): full antinociceptive effects; effect of naloxone pretreatment on antinociceptive effect (mice; naloxone 10 mg/kg ip, -10 min, icv test compound): blocked by naloxone pretreatment; EC50 (MOR [3]): 4.27 nM; Emax (MOR [3]): 130 ± 3%
O=C(CCc1ccccc1)O[C@@]12Cc3cc(-c4ccc(Cl)cc4)cnc3[C@@H]3Oc4c(O)ccc5c4[C@@]31CCN(CC1CC1)[C@@H]2C5 [Compound 18c, 5′-(4-Chlorophenyl)-17-(cyclopropylmethyl)-6,7-didehydro-4,5α-epoxy-3-hydroxy-14-(3-phenylpropionyloxy)pyrido[2′,3′:6,7]morphinan]	–	no stim	–	0.62	no stim	–	–	12 ± 13	2.9	antagonist activity DOR Ke (DOR [1]; [9]): 1.86 ± 0.21 nM; agonist activity KOR Emax (KOR [6]; [7]): 25 ± 1%; antagonist activity KOR Ke (KOR [6]; [9]): 14 ± 2 nM; EC50 (KOR [6]; stimulation of [35S]GTP-γ-S binding, no stim = no stimulation, read-out: agonist activity KOR EC50): 13 ± 4 nM; Ki (MOR [2]; read-out: Ki ± SEM MOR): 2.58 ± 0.12 nM; antagonist activity MOR Ke (MOR [3]; [9]): 13 ± 1.7 nM; Ki (DOR [4]; read-out: Ki ± SEM DOR): 4.13 ± 0.29 nM
CN1CC[C@]23c4c5ccc(O)c4O[C@H]2[C@@H](O)C=C[C@H]3[C@H]1C5 [morphine, reference compound]	–	–	–	–	–	–	–	–	–	Antinociceptive A50 Values (mice; icv): 0.43 nmol
